Among the data in patent publication US20250136570A1 (Tango Therapeutics, Inc., priority 2021, published 2025) are IC50 values, retold here.

For one assay, the target named is Recombinant HDAC1 (Homo sapiens (Human), UniProt Q13547). Put plainly: HDAC1 inhibition, Fluor de Lys fluorescent enzyme assay. Type of assay: biochemical. The conditions noted are these: 3 hours pre-incubation at room temp; 6 nM enzyme; 16 μM Fluor de Lys substrate; duplicate. The text has this: (§1) Recombinant HDAC1 (cat #: 50051) and HDAC3/NCor2 (cat #: 50003) enzymes were purchased from BPS Bioscience (San Diego, CA, US). Assay reagents for the detection of HDAC enzyme activity (Fluor de Lys®—Green substrate and Developer kits) were purchased from Enzo Life Science (Farmingdale, NY, US). Plates used to conduct the enzyme reaction were Proxiplate-384 (cat #: 6008280) Plus from PerkinElmer (Waltham, MA, US). TSA, an HDAC inhibitor, was purchased from Enzo Life Science (cat #BML-GR309-9090) The remainder of the reagents used to prepare the assay buffer were purchased from Sigma-Aldrich (St Louis, MO, US). Unless stated otherwise, HDAC1 and 3 assays were conducted in 50 mM Tris buffer, pH 8, 137 mM NaCl, 2.7 mM KCl, 0.01% BSA.
(§2) IC50 determination for HDAC1 and HDAC3—Prior to adding reagents, 50 nL/well of compound were added to Proxiplates using an Echo dispenser instrument (Beckman Coulter, CA, US). After addition of compound, 2.5 μL/well of 2× enzyme solution was added and the enzyme was pre-incubated with compound for 3 hours at room temp. (˜22° C.). After the pre-incubation period, the enzyme reaction was initiated by adding 2.5 μL/well of 2× Fluor de Lys® substrate solution. The assay reaction was stopped after one hour by adding 5 μl/well of a 0.66× Developer solution containing TSA (3.2 μM). The final product of the enzyme reaction was read using a Spectramax plate reader instrument (Molecular Devices, CA, US) using a fluorescent readout (Ex 360 nm/Em 460 nm). The final enzyme concentrations in the assay buffer for HDAC1 and 3 were 6 and 1.2 nM, respectively. The final Fluor de Lys® substrate concentration in the assay buffer was 16 μM for all HDAC enzymes. IC50 values were determined using the following equation: […]
(§3) Where Efree and Eo are the free and total amount of HDAC enzyme in the reaction mixture, n is the hill coefficient, I is the free inhibitor concentration, and IC50 is the measure of the potency equivalent to the inhibitor concentration that leads to a 50% occupancy of the total enzyme. Each data was generated in duplicate.

The next assay has as its target HDAC3/NCor2 (Homo sapiens (Human), UniProt O15379). As to the kind of experiment: HDAC3 inhibition, Fluor de Lys fluorescent enzyme assay. The conditions noted are these: 3 hours pre-incubation at room temp; 1.2 nM enzyme; 16 μM Fluor de Lys substrate; duplicate. Type of assay: biochemical.
Text: as §1, §2, §3

Structures are written as SMILES.

HDAC3/NCor2, sequence (O15379 whole entry): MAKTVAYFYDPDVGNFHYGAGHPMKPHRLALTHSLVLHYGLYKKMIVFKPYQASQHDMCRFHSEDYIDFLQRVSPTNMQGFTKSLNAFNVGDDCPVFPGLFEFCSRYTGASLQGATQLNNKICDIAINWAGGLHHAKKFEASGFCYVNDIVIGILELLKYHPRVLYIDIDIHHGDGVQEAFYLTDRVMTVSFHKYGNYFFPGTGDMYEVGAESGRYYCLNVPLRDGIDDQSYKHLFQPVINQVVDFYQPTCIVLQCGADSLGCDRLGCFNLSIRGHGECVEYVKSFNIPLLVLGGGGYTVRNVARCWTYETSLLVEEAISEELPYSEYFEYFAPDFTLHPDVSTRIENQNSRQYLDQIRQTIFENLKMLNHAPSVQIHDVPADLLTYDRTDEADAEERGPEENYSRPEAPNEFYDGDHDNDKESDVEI
HDAC3/NCor2, sequence (Q9Y618 395-489 partner): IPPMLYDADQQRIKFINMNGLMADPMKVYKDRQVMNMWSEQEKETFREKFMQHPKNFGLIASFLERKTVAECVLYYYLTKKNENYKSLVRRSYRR
Recombinant HDAC1, sequence (Q13547 whole entry): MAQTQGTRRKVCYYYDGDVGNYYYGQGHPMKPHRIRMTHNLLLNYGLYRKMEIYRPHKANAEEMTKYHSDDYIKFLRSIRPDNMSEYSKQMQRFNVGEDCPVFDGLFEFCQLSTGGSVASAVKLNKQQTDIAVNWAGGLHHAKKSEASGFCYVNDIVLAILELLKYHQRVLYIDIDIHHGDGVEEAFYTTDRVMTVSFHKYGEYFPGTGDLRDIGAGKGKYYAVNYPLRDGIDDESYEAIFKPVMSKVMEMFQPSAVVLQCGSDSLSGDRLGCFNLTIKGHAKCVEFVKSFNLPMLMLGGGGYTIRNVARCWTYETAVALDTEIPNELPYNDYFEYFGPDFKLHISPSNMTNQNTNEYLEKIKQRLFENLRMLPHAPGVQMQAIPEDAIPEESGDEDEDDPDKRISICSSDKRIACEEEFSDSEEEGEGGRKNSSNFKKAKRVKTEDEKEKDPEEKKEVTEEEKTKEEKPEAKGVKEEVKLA

As for `COc1ccncc1S(=N)(=O)c1ccc(C(=O)Nc2cc(-c3ccc(F)cc3)ccc2N)cc1` (centres unmarked) [Compound 240, N-[2-amino-5-(4-fluorophenyl)phenyl]-4-[(4-methoxy-3-pyridyl)sulfonimidoyl]benzamide], the IC50 (commonly the concentration that inhibits the measured activity by half) on Recombinant HDAC1 is < 100 nM; against HDAC3/NCor2, 500 to 2000 nM.

With `CS(=N)(=O)c1ccc2oc(C(=O)Nc3cc(-c4ccc(F)cc4)ccc3N)cc2n1` (centres unmarked) [Compound 189, N-[2-amino-5-(4-fluorophenyl)phenyl]-5-(methylsulfonimidoyl)furo[3,2-b]pyridine-2-carboxamide], the IC50 on Recombinant HDAC1 was < 100 nM; at HDAC3/NCor2 it was 500 to 2000 nM.

As for `Cc1ncccc1S(=N)(=O)c1ccc(C(=O)Nc2cc(-c3ccc(F)cc3)ccc2N)cc1` (centres unmarked) [Compound 190, N-[2-amino-5-(4-fluorophenyl)phenyl]-4-[(2-methyl-3-pyridyl)sulfonimidoyl]benzamide], the 50% inhibitory concentration (IC50) at Recombinant HDAC1 is < 100 nM; against HDAC3/NCor2, 500 to 2000 nM.

`COCCOCc1ccc(S(=N)(=O)c2ccc(C(=O)Nc3cc(-c4ccc(F)cc4)ccc3N)cc2)cn1` (centres unmarked) [Compound 246, N-[2-amino-5-(4-fluorophenyl)phenyl]-4-[[6-(2-methoxyethoxymethyl)-3-pyridyl]sulfonimidoyl]benzamide]: the IC50 on Recombinant HDAC1 was < 100 nM; at HDAC3/NCor2, 500 to 2000 nM.

As to `N=[S@](=O)(c1ccc(C(=O)Nc2cc(-c3ccc(F)cc3)ccc2N)cc1)C1CC1` (single isomer, unassigned) [Compound 145], the IC50 on Recombinant HDAC1 is < 100 nM; on HDAC3/NCor2, 500 to 2000 nM.

For the molecule `CS(=N)(=O)c1ccc(C(=O)Nc2cc(-c3ccncc3)ccc2N)cc1` (centres unmarked) [Compound 108, N-[2-amino-5-(4-pyridyl)phenyl]-4-(methylsulfonimidoyl)benzamide], the results for the IC50 at Recombinant HDAC1 and at HDAC3/NCor2 were < 100 nM and > 2000 nM, respectively.

In the case of `N=S(=O)(c1ccc(C(=O)Nc2cc(-c3ccc(F)cc3)ccc2N)cc1)c1cnc(O)nc1` (centres unmarked) [Compound 234, N-[2-amino-5-(4-fluorophenyl)phenyl]-4-[(2-hydroxypyrimidin-5-yl)sulfonimidoyl]benzamide], the results for the IC50 at Recombinant HDAC1 and against HDAC3/NCor2 were < 100 nM and > 2000 nM, respectively.

Turning to `N=S(=O)(c1ccccc1)c1ccc(C(=O)Nc2cc(-c3cccs3)ccc2N)cc1` (centres unmarked) [Compound 102, N-[2-amino-5-(2-thienyl)phenyl]-4-(phenylsulfonimidoyl)benzamide], the IC50 on Recombinant HDAC1 is < 100 nM; against HDAC3/NCor2, 500 to 2000 nM.

For the molecule `CS(=N)(=O)c1coc2cc(C(=O)Nc3cc(-c4ccc(F)cc4)ccc3N)ccc12` (centres unmarked) [Compound 258, N-[2-amino-5-(4-fluorophenyl)phenyl]-3-(methylsulfonimidoyl)benzofuran-6-carboxamide], the IC50 at Recombinant HDAC1 is < 100 nM; against HDAC3/NCor2, 500 to 2000 nM.

In the case of `C[S@@](=N)(=O)c1ccc(C(=O)Nc2cc(-c3ccc(F)s3)ccc2N)cc1` [Compound 144, (R)—N-[2-amino-5-(5-fluoro-2-thienyl)phenyl]-4-(methylsulfonimidoyl)benzamide], the IC50 on Recombinant HDAC1 was < 100 nM; on HDAC3/NCor2, 500 to 2000 nM.

For `N=S(=O)(c1ccc(C(=O)Nc2cc(-c3ccc(F)cc3)ccc2N)cc1)c1cnccc1O` (centres unmarked) [Compound 227, N-[2-amino-5-(4-fluorophenyl)phenyl]-4-[(4-hydroxy-3-pyridyl)sulfonimidoyl]benzamide], the IC50 is < 100 nM at Recombinant HDAC1 and 500 to 2000 nM at HDAC3/NCor2.

In the case of `COc1ccc(S(=N)(=O)c2ccc(C(=O)Nc3cc(-c4ccc(F)cc4)ccc3N)cc2)cn1` (centres unmarked) [Compound 222, N-[2-amino-5-(4-fluorophenyl)phenyl]-4-[(6-methoxy-3-pyridyl)sulfonimidoyl]benzamide], the IC50 on Recombinant HDAC1 was < 100 nM; on HDAC3/NCor2 it was 500 to 2000 nM.

Turning to `N=S(=O)(c1ccc(C(=O)Nc2cc(-c3ccc(F)cc3)ccc2N)cc1)c1ccc(C(F)(F)F)nc1` (centres unmarked) [Compound 205, N-[2-amino-5-(4-fluorophenyl)phenyl]-4-[[6-(trifluoromethyl)-3-pyridyl]sulfonimidoyl]benzamide], the IC50 was < 100 nM at Recombinant HDAC1 and > 2000 nM at HDAC3/NCor2.

Take `CC(O)c1ccc(-c2ccc(N)c(NC(=O)c3ccc(S(C)(=N)=O)cc3)c2)s1` (centres unmarked) [Compound 255, N-[2-amino-5-[5-(1-hydroxyethyl)-2-thienyl]phenyl]-4-(methylsulfonimidoyl)benzamide]: the values for the 50% inhibitory concentration (IC50) on Recombinant HDAC1 and on HDAC3/NCor2 were < 100 nM and > 2000 nM, respectively.

For the molecule `N=S(=O)(c1ccc(C(=O)Nc2cc(-c3ccc(F)cc3)ccc2N)cc1)c1ncc[nH]1` (centres unmarked) [Compound 257, N-[2-amino-5-(4-fluorophenyl)phenyl]-4-(1H-imidazol-2-ylsulfonimidoyl)benzamide], the values for the 50% inhibitory concentration (IC50) on Recombinant HDAC1 and at HDAC3/NCor2 were < 100 nM and 100 to 500 nM, respectively.

In the case of `CS(=N)(=O)c1ccc(C(=O)Nc2cc(-c3cccs3)ccc2N)nc1` (centres unmarked) [Compound 113, N-[2-amino-5-(2-thienyl)phenyl]-5-(methylsulfonimidoyl)pyridine-2-carboxamide], the IC50 on Recombinant HDAC1 was < 100 nM; at HDAC3/NCor2, 500 to 2000 nM.

In the case of `Nc1ccc(-c2ccc(F)cc2)cc1NC(=O)c1cc2cc(S3(=O)=NCCC3)ccc2o1` (centres unmarked) [Compound 210], the IC50 is < 100 nM on Recombinant HDAC1 and 500 to 2000 nM on HDAC3/NCor2.

Regarding `CS(=N)(=O)c1ccc(C(=O)Nc2cc(-c3ccc(F)s3)ccc2N)cc1` (centres unmarked) [Compound 109, N-[2-amino-5-(5-fluoro-2-thienyl)phenyl]-4-(methylsulfonimidoyl)benzamide], the half-maximal inhibitory concentration (IC50) at Recombinant HDAC1 was < 100 nM; on HDAC3/NCor2, 500 to 2000 nM.

On to `Nc1ccc(-c2ccc(F)cc2)cc1NC(=O)c1ccc([S@@]2(=O)=N[C@@H](c3ccccc3)CC2)cc1` (racemic) [Compound 229, rac-N-(4-amino-4′-fluoro-[1,1′-biphenyl]-3-yl)-4-((1R,3R)-1-oxido-3-phenyl-4,5-dihydro-3H-1λ^6-isothiazol-1-yl)benzamide], for which the IC50 on Recombinant HDAC1 was < 100 nM; against HDAC3/NCor2 it was > 2000 nM.

As to `CS(=N)(=O)Cc1ccc2oc(C(=O)Nc3cc(-c4ccc(F)cc4)ccc3N)cc2c1` (centres unmarked) [Compound 170, N-[2-amino-5-(4-fluorophenyl)phenyl]-5-[(methylsulfonimidoyl)methyl]benzofuran-2-carboxamide], the results for the IC50 on Recombinant HDAC1 and at HDAC3/NCor2 were < 100 nM and 500 to 2000 nM, respectively.

Take `Cc1ccc(S(=N)(=O)c2ccc(C(=O)Nc3cc(-c4ccc(F)cc4)ccc3N)cc2)nc1` (centres unmarked) [Compound 231, N-[2-amino-5-(4-fluorophenyl)phenyl]-4-[(5-methyl-2-pyridyl)sulfonimidoyl]benzamide]: the concentration for half-maximal inhibition (IC50) at Recombinant HDAC1 is < 100 nM; against HDAC3/NCor2, 500 to 2000 nM.

As for `CS(=N)(=O)c1ccc(C(=O)Nc2cc(-c3ccc(F)cc3)ccc2O)cc1` (centres unmarked) [Compound 130, N-[5-(4-fluorophenyl)-2-hydroxy-phenyl]-4-(methylsulfonimidoyl)benzamide], the half-inhibitory concentration (IC50) is < 100 nM at Recombinant HDAC1 and 500 to 2000 nM against HDAC3/NCor2.

For `N=[S@@](=O)(c1ccc(C(=O)Nc2cc(-c3cccs3)ccc2N)cc1)C1CC1` (single isomer, unassigned) [Compound 115], the concentration for half-maximal inhibition (IC50) at Recombinant HDAC1 is < 100 nM; on HDAC3/NCor2, 500 to 2000 nM.

For `Nc1ccc(-c2ccc(Cl)cc2)cc1NC(=O)c1ccc(S2(=O)=NCCC2)cc1` (centres unmarked) [Compound 203, N-[2-amino-5-(4-chlorophenyl)phenyl]-4-(1-oxo-4,5-dihydro-3H-isothiazol-1-yl)benzamide], the figures for the concentration for half-maximal inhibition (IC50) on Recombinant HDAC1 and against HDAC3/NCor2 were < 100 nM and > 2000 nM, respectively.

As for `CS(=N)(=O)c1ccc(C(=O)Nc2cc(-c3cccc(C(N)=O)c3)ccc2N)cc1` (centres unmarked) [Compound 180, 3-[4-amino-3-[[4-(methylsulfonimidoyl)benzoyl]amino]phenyl]benzamide], the half-inhibitory concentration (IC50) on Recombinant HDAC1 was < 100 nM; against HDAC3/NCor2, > 2000 nM.

In the case of `N=S(=O)(c1ccc(C(=O)Nc2cc(-c3ccc(F)cc3)ccc2N)cc1)c1cccc(F)c1` (centres unmarked) [Compound 216, N-[2-amino-5-(4-fluorophenyl)phenyl]-4-[(3-fluorophenyl)sulfonimidoyl]benzamide], the figures for the 50% inhibitory concentration (IC50) on Recombinant HDAC1 and on HDAC3/NCor2 were < 100 nM and 500 to 2000 nM, respectively.

Consider `CS(=N)(=O)c1ccc(C(=O)Nc2cc(-c3ccc(F)cc3)ccc2N)cc1` (centres unmarked) [Compound 104, N-[2-amino-5-(4-fluorophenyl)phenyl]-4-(methylsulfonimidoyl)benzamide], for which the values for the IC50 at Recombinant HDAC1 and on HDAC3/NCor2 were < 100 nM and 500 to 2000 nM, respectively.

As for `CS(=N)(=O)c1cc2cc(C(=O)Nc3cc(-c4ccc(F)cc4)ccc3N)ccc2o1` (centres unmarked) [Compound 248, N-[2-amino-5-(4-fluorophenyl)phenyl]-2-(methylsulfonimidoyl)benzofuran-5-carboxamide], the half-inhibitory concentration (IC50) at Recombinant HDAC1 is < 100 nM; on HDAC3/NCor2, 500 to 2000 nM.
